From ChEMBL document CHEMBL1201862, “PubChem BioAssay data set” (2004)
Calls of active or inactive are those of the source.

How the values were obtained:
[1] = alpha-synuclein stem-loop luciferase translation blockers – H4 neuroglioma cells, luminescence, confirmation (AID 1988); assay type: functional, cell-based
BJ [2] = experiment: BJ-TERT-LT-ST fibroblast viability loss – cell-based, RAS-independent, luminescence, dose response (AID 1935); assay type: functional; conditions: Homo sapiens;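 note: BJ fibroblasts immortalized with TERT plus LT and ST oncogenes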
[3] = Luminescence Cell-Based Dose Response HTS to Identify Inhibitors of 5'UTR Stem-Loop Driven Prion Protein mRNA Translation in H4 Neuroglioblastoma Cells. [Related pubchem assays: 1827 (Project Summary), 1813 (Primary HTS)]; assay type: functional
BJ [4] = experiment: cells; assay type: functional, cell-based; conditions: Homo sapiens
cells [5] = assay type: functional, cell-based
BJ [6] = experiment: growth inhibition of engineered Ras-driven BJ cells – cell-based, alamar blue fluorescence, cherrypicked samples, dose response (AID 2631); assay type: functional; conditions: Homo sapiens;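 note: confirmatory dose-response assay in RAS-dependent BJ fibroblasts engineered with TERT, LT and ST, with cytotoxicity read by fluorescence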
BJ [7] = experiment: BJ-TERT fibroblast viability loss – cell-based, RAS-independent, luminescence, dose response (AID 1933); assay type: functional; conditions: Homo sapiens
[8] = alpha-synuclein stem-loop translation blockers – luminescence, H4 neuroglioblastoma cells, dose confirmation, confirmation (AID 2454); assay type: functional, cell-based;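 note: H4 neuroglioblastoma cells carrying an alpha-synuclein 5'UTR luciferase reporter; potency for inhibition of the luciferase signal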
[9] = luciferase reporter signal reduction – luminescence, H4-C neuroglioblastoma cells, dose response (AID 2458); assay type: functional, cell-based;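 note: H4 neuroglioblastoma cells stably carrying a luciferase reporter gene fusion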
[10] = DRD fibroblast viability loss – cell-based, non-viral oncogenic, luminescence, dose response (AID 1934); assay type: functional; conditions: Homo sapiens
[11] = target: T1, Microphthalmia-associated transcription factor (Homo sapiens, UniProt O75030); experiment: reducers of TRPM1 reporter luminescence, concentration series – cell-based, SK-MEL-5, cherry-picked, set 3, MITF inhibitor project, dose response (AID 493073); assay type: functional;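 note: SK-MEL-5 melanoma cells with luciferase driven by the MITF target TRPM1 promoter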
T1 sequence (O75030 whole entry): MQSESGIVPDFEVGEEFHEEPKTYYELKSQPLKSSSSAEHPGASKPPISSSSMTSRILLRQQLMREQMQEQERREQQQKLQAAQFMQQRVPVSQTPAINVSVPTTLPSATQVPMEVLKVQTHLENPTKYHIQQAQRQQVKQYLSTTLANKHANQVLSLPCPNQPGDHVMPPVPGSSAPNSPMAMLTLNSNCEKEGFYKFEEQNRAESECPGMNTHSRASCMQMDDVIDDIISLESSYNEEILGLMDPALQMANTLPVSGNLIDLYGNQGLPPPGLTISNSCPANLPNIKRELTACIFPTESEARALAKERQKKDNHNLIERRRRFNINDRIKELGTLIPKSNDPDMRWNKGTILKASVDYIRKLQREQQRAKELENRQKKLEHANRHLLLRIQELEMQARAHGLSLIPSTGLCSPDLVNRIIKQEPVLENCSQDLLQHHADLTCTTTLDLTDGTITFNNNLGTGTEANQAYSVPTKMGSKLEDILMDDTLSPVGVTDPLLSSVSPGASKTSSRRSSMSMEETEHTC

[12] = decrease of insulin promoter-GFP reporter – imaging, high-content screening, mouse beta cells (AID 1628); assay type: functional; conditions: MIN6
[13] = MIN6 cell viability loss – mouse insulinoma, cytotoxicity control, dose response (AID 2122); assay type: functional;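 note: confirmatory high-throughput counterscreen run to flag cytotoxic compounds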
HeLa = experiment: ATP-based viability loss in HeLa cells – cell-based, CellTiter-Glo luminescence, cherry-pick samples, cytotoxicity control for MITF activator project, dose response (AID 540259); assay type: functional; conditions: Homo sapiens
Bcl-2-related protein A1 = target: T2, Bcl-2-related protein A1 (Mus musculus, UniProt Q07440); assay type: functional;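 note: confirmatory dose–response counterscreen on Bfl-1, used to check hits from a UBC13 polyubiquitin inhibitor campaign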
T2 sequence (Q07440 whole entry): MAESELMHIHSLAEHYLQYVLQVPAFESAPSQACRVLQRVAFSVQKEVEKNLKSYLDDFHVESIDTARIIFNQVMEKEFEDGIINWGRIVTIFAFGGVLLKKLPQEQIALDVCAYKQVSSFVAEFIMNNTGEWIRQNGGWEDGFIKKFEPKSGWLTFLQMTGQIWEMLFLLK

[14] = target: T3, Ubiquitin-conjugating enzyme E2 N (Homo sapiens, UniProt P61088); assay type: functional
T3 sequence (P61088 whole entry): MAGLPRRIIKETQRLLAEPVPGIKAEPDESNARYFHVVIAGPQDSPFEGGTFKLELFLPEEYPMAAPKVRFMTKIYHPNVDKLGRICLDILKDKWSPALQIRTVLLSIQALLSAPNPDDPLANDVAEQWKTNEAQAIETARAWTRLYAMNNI

[15] = target: T3, Ubiquitin-conjugating enzyme E2 N; assay type: functional; remark: listed apart in the source
[16] = viability loss of HMLE_sh_eGFP cells – cell-based, luminescence, counter-screen for HMLE_sh_ECad selective toxicity project, dose response (AID 463074); assay type: functional, Homo sapiens;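 note: HMLE human mammary epithelial cells expressing control shRNA against eGFP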
Paired box protein Pax-8 = Paired box protein Pax-8 (Homo sapiens, UniProt Q06710); experiment: PAX8 transcriptional activity inhibition in RMG-I – RMG-I cells, luciferase, cherry-pick, dose response (AID 687027); assay type: functional, cell-based;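 note: luciferase reporter driven by Pax8 target thyroperoxidase promoter measured by SteadyGlo luminescence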
[17] = microbe, parasite or virus in culture; assay type: functional; conditions: Mycobacterium tuberculosis
INS1 = experiment: INS-1E survival protection against cytokine death – cell-based, luminescence, retest, dose response (AID 449756); assay type: functional; conditions: Rattus norvegicus;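 note: cell death triggered by IL-1 beta plus TNF-alpha plus IFN-gamma mixture; protective hits raise ATP signal compared with cytokine alone wells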
[18] = Luminescence Cell-Based Dose Retest to Confirm Inhibitors of Cancer Stem Cells. [Related pubchem assays (depositor defined):AID2717, AID2721]; assay type: functional; conditions: Homo sapiens
[19] = loss of viability in HepG2 cells – cell-based, CellTiter-Glo, cherry-picked, cytotoxicity control for Shn3 inhibitor project, dose response (AID 624134); assay type: functional
[20] = non-specific 3'UTR reporter inhibition in Clone20-Shn3RL – cell-based, Renilla luciferase, cherry-picked, counter-screen for Shn3 inhibitor project, dose response (AID 624133); assay type: functional
[21] = reduction of Shn3 3'UTR-driven luciferase in osteoblasts – cell-based, Clone20 osteoblasts, firefly luciferase, cherry-picked, dose response (AID 624132); assay type: functional;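 note: firefly luciferase luminescence from reporter carrying the Shn3 3'UTR in osteoblasts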
[22] = target: T4, Voltage-gated N-type calcium channel alpha-1B subunit/Amyloid beta A4 precursor protein-binding family A member 1 (Homo sapiens, UniProt Q00975+Q02410); assay type: protein assay
[23] = target: T4, Voltage-gated N-type calcium channel alpha-1B subunit/Amyloid beta A4 precursor protein-binding family A member 1; assay type: protein assay; remark: listed apart in the source
[24] = target: Luciferin 4-monooxygenase (Photinus pyralis, UniProt P08659); experiment: Counter Screen for Luciferase-based Assay Positives. [Related pubchem assays: 620, 618, 411 ]
[25] = luciferase reporter signal suppression in cells – H4 neuroglioma cells, luminescence, dose response (AID 1990); assay type: functional, cell-based
HT-1080 = experiment: HT1080 cell viability loss – fluorescence readout (AID 620); assay type: functional, cell-based; conditions: Homo sapiens
[26] = HPDE-C7 pancreatic duct cell viability loss – fluorescence, HTS (AID 430); assay type: functional, cell-based; conditions: Homo sapiens
[27] = viability loss of HPDE-C7K cells – cell-based, fluorescence, HTS, primary screen (AID 431); assay type: functional; conditions: Homo sapiens
cells [28] = assay type: functional
[29] = Vero E6 cell cytotoxicity, dose response, cytotoxicity control for non-replicating M. tuberculosis project, secondary assay (AID 492998); assay type: functional, VeroE6; conditions: Vero C1008
[30] = THP-1 cell cytotoxicity, dose response, cytotoxicity control for non-replicating M. tuberculosis project (AID 489025); assay type: functional
[31] = HepG2 cell cytotoxicity, dose response, cytotoxicity control for non-replicating M. tuberculosis project (AID 489018); assay type: functional; conditions: Mycobacterium tuberculosis
[32] = target: T5, Rac GTPase-activating protein 1 (Homo sapiens, UniProt Q9H0H5); experiment: blockers of MgcRacGAP-driven Rac1 GTP hydrolysis – biochemical, ADP Hunter fluorescence, primary and confirmatory, confirmation (AID 624330); assay type: functional
T5 sequence (Q9H0H5 whole entry): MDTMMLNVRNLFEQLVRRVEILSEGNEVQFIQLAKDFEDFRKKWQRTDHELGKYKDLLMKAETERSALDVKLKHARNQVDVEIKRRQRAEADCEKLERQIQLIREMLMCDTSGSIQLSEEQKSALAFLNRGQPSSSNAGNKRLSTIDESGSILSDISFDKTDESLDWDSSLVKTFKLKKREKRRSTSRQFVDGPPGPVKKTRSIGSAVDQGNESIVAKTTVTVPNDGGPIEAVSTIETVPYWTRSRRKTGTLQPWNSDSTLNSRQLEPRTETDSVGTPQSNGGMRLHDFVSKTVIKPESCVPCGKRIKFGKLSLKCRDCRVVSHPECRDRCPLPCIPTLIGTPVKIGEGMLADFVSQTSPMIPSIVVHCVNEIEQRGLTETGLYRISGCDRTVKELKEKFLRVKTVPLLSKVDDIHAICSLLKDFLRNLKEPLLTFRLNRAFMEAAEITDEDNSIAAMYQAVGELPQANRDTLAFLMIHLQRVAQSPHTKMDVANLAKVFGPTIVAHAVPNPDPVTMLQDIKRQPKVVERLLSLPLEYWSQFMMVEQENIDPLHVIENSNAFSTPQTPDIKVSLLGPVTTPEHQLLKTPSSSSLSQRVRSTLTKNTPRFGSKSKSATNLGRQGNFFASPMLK

Cytochrome P450 3A4 = Cytochrome P450 3A4 (Homo sapiens, UniProt P08684);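 note: CYP3A4 tested as one member of a cytochrome P450 panel screen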
Cytochrome P450 3A4, sequence (P08684 whole entry): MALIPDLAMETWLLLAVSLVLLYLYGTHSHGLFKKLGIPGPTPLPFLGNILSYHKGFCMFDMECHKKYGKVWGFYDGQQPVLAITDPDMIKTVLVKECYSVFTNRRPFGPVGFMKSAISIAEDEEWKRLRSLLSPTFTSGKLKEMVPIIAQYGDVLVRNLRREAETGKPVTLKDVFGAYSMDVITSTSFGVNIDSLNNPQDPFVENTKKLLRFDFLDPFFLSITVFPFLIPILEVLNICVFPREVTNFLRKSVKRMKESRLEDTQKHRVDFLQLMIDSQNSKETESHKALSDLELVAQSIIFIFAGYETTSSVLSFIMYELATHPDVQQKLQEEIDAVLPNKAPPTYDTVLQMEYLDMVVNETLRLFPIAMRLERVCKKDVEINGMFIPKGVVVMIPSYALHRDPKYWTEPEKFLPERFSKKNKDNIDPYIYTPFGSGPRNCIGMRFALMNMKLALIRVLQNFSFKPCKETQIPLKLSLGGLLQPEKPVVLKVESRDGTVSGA

T4 sequence (Q00975 whole entry): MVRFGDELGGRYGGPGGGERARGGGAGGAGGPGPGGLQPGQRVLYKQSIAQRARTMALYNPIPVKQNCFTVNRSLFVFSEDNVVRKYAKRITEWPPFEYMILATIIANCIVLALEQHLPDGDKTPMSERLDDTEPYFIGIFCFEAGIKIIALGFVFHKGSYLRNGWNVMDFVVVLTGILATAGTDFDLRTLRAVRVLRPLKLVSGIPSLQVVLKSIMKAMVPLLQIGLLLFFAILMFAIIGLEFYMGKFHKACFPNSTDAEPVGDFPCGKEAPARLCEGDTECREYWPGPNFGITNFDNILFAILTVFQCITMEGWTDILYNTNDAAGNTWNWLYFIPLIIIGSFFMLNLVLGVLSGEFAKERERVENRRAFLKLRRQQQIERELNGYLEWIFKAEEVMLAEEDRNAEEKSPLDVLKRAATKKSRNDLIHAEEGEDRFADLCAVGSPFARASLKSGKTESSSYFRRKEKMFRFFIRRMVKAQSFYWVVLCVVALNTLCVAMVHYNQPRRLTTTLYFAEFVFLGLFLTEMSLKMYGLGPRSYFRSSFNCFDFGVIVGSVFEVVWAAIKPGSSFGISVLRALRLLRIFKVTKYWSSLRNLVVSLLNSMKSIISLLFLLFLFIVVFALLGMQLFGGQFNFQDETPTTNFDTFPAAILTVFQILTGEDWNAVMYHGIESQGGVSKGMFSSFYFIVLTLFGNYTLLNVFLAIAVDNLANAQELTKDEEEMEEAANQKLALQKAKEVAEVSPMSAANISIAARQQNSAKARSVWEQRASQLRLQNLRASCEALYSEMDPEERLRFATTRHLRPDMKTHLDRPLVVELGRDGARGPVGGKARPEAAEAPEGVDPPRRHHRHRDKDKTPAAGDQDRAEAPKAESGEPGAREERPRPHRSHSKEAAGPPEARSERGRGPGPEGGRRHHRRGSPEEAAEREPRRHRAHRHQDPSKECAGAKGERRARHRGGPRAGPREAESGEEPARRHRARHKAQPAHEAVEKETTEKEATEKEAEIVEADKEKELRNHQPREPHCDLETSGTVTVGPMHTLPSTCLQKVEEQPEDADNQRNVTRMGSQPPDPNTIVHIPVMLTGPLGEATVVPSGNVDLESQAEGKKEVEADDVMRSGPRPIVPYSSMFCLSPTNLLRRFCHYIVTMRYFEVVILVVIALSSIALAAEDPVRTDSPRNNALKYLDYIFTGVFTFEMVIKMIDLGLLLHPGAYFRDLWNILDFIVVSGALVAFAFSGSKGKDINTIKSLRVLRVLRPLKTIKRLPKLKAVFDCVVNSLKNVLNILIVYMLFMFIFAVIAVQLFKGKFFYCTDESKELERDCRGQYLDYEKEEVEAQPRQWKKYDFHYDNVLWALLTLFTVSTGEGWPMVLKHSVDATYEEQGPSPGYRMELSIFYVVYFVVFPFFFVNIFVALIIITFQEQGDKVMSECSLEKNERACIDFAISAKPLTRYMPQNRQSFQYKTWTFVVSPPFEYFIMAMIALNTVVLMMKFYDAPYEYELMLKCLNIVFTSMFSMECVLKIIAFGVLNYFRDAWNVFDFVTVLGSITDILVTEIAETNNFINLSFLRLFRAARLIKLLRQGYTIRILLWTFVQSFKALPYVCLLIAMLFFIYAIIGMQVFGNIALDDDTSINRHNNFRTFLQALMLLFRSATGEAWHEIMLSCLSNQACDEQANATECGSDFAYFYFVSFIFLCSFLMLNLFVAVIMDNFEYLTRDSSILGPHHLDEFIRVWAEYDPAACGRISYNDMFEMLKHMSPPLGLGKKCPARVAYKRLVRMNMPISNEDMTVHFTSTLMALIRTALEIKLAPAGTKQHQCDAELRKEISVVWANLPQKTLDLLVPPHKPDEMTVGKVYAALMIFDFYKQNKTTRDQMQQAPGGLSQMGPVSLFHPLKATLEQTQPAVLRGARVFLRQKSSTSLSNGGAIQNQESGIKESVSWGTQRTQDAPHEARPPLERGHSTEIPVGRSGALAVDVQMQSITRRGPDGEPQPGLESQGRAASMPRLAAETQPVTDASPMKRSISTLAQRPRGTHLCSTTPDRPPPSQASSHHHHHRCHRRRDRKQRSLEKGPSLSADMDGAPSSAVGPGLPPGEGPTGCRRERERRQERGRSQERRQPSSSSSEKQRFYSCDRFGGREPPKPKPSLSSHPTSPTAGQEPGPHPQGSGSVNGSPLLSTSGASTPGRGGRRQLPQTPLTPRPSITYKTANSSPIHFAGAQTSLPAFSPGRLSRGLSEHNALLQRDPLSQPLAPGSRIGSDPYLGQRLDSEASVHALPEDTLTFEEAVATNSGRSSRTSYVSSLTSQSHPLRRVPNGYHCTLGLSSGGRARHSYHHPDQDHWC
T4 sequence (Q02410 whole entry): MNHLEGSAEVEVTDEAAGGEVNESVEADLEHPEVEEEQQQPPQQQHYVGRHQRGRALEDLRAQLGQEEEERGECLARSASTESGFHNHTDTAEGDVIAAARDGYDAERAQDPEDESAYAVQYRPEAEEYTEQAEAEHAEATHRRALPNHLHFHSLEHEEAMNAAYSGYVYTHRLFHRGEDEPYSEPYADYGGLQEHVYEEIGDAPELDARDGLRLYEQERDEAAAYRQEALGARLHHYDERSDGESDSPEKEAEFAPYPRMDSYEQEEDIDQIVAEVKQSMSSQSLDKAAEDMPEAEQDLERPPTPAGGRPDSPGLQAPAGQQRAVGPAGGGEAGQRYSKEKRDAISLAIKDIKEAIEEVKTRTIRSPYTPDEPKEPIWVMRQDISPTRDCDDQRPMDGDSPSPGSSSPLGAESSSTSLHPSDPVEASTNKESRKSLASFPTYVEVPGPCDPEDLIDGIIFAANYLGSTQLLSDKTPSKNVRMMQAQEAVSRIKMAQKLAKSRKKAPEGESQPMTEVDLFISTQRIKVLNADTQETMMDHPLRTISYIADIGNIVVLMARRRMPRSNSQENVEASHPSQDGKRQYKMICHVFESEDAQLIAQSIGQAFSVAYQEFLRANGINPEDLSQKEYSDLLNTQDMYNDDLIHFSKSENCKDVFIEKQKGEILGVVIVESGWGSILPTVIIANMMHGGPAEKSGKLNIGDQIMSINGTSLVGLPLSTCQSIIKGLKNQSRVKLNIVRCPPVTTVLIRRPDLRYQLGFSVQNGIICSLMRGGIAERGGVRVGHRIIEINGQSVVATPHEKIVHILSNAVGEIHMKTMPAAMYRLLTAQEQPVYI
Paired box protein Pax-8, sequence (Q06710 whole entry): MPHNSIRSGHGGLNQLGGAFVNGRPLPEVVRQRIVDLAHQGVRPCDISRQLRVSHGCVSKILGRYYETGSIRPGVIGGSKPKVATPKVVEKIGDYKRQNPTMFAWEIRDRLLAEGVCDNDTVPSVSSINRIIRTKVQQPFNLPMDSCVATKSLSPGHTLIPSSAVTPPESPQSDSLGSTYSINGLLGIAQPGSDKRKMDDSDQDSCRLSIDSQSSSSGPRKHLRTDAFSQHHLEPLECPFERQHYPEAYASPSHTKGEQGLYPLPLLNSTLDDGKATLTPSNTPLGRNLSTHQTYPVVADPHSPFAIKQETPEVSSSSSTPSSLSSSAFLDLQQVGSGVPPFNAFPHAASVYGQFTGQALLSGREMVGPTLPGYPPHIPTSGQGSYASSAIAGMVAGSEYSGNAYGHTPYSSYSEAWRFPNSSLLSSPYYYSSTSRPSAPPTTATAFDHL
Luciferin 4-monooxygenase, sequence (P08659 whole entry): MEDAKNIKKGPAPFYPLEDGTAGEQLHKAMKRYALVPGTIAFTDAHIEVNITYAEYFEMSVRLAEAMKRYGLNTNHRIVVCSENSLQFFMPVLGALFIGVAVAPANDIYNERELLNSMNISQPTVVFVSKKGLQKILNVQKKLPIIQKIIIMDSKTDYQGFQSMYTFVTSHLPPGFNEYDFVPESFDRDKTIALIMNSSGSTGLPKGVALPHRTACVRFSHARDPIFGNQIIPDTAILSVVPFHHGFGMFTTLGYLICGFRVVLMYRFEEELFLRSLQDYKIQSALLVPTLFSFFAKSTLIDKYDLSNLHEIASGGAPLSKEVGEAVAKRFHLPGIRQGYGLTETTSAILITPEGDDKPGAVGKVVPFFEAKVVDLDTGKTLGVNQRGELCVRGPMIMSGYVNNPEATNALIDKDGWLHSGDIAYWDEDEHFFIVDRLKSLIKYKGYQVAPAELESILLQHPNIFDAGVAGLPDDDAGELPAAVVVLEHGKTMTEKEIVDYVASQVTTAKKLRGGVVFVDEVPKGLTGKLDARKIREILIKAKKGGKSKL

COc1cc2c(c(OC)c1OC)-c1ccc(N(C)CC(OC)OC)c(=O)cc1[C@@H](NC(C)=O)CC2
EC50 [1]: < 0.1 µM (active) | EC50 (BJ [2]): 20 µM (inconclusive) | EC50 [3]: 8.84 µM (active) | EC50 (BJ [4]): 3.06 µM (active) | EC50 (cells [5]): > 12 µM (not active) | EC50 (BJ [6]): 0.117 µM (active) | EC50 (BJ [7]): 2.59 µM (inconclusive) | EC50 [8]: 1.22 µM (active) | EC50 [9]: > 12 µM (not active) | EC50 [10]: 2.35 µM (active) | AC50 [11]: 2.04 µM (active)

COc1ccc(-c2c3c(nc4sc5c(O)nc(C)nc5c24)CCC3)cc1
IC50 [12]: 0.847 µM (active) | IC50 [13]: > 16 µM (inactive)

Nc1ccc(O)c2c(=O)cc(-c3ccccc3Cl)oc12
AC50 (HeLa): 79.6 µM (active)

CCOc1ccc(N(C(=O)c2snc(C(N)=O)c2N)C(C(=O)NCC2CCCO2)c2c[nH]c3ccccc23)cc1 (centres undefined)
IC50 (Bcl-2-related protein A1): > 20 µM (inactive) | IC50 [14]: 5.73 µM (active) | IC50 [15]: 11.1 µM (active)

CCCCn1cnc2c(c(-c3ccccc3)c(-c3ccccc3)n2Cc2ccco2)c1=N
EC50 (BJ [2]): 11.1 µM (inconclusive) | AC50 [16]: 50.9 µM (active) | AC50 (Paired box protein Pax-8): 9.7 µM (active) | CC50 [17]: > 40 µM (active) | EC50 (BJ [4]): 36.1 µM (active) | AC50 (INS1): > 260 µM (inactive) | EC50 (BJ [6]): 76.5 µM (active) | AC50 [18]: 49.8 µM (active) | EC50 (BJ [7]): 7.71 µM (active) | EC50 [10]: 9.06 µM (active)

CC(CCCC(C)(C)O)NC(=O)c1cc(COc2ccc3ncccc3c2)on1 (centres undefined)
AC50 [19]: 3.65 µM (active) | IC50 [12]: 1.96 µM (active) | IC50 [13]: 1.48 µM (active) | AC50 (INS1): 4.37 µM (active) | AC50 [20]: 1.06 µM (active) | AC50 [21]: 1.75 µM (active)

CCC(=O)Nc1ccc(Nc2nc(Cl)nc(Nc3ccc(NC(=O)CC)cc3)n2)cc1
IC50 [22]: > 50 µM (inactive) | IC50 [23]: 12.8 µM (active)

COc1ccc(C(=O)Nn2c(SCC(=O)NCc3ccccc3)nc3ccccc3c2=O)cc1
EC50 [1]: 0.403 µM (inconclusive) | EC50 [24]: 2.51 µM (active) | EC50 [25]: 9.49 µM (active) | IC50 (Bcl-2-related protein A1): > 20 µM (inactive) | EC50 [3]: 9.71 µM (active) | IC50 [14]: > 20 µM (inactive) | EC50 (HT-1080): > 50 µM (not active) | IC50 [15]: 19.4 µM (active)

O=C1CSC(=S)N1Cc1cccnc1
EC50 (BJ [2]): > 150 µM (inconclusive) | EC50 [26]: 5.21 µM (active) | EC50 [27]: 3.72 µM (active) | EC50 (BJ [4]): 21.1 µM (active) | IC50 (cells [28]): 13.2 µM (active) | EC50 (BJ [7]): 5.09 µM (active) | CC50 [29]: 4.93 µM (active) | CC50 [30]: 3.69 µM (active) | EC50 [10]: 9.9 µM (active)

COC(=O)c1ccc(C(=O)NC2CC(C)(C)Cc3c2cnn3-c2ccc(F)cc2)nc1 (centres undefined)
CC50 [31]: > 20 µM (active) | IC50 (cells [28]): 6.8 µM (active) | CC50 [29]: 12.2 µM (active) | CC50 [30]: 16.8 µM (active)

C#CCOCCOCCOCCNc1nc(N2CCN(C(=O)[C@H](CCCCN)n3cc([C@@H](N)CC(C)C)nn3)CC2)nc(N2CCN(C(=O)[C@H](CCCCN)n3cc([C@@H](N)CC(C)C)nn3)CC2)n1
IC50 (Bcl-2-related protein A1): > 20 µM (inactive) | IC50 [32]: 190 µM (active) | IC50 [14]: 14 µM (active) | IC50 [15]: 14.4 µM (active)

Cc1s/c(=N\C(=O)c2ccco2)n(C)c1-c1ccccc1
AC50 (Cytochrome P450 3A4): inconclusive

CCN(CC)S(=O)(=O)c1cccc(C(=O)N/N=C(\C)c2cccs2)c1
AC50 (HeLa): 50.9 µM (active)

O=C(Cc1cccc2ccccc12)N/N=C/c1ccc(Sc2nc3ccccc3s2)o1
AC50 (Cytochrome P450 3A4): inconclusive

CC1CCN(c2ccc(/C=N/n3nnnc3N)cc2[N+](=O)[O-])CC1
AC50 (Cytochrome P450 3A4): inconclusive
